Test results taken from ChEMBL document CHEMBL3507680, “University of Dundee, Gates Library screen for HepG2 cell viability”.

Test: Human HepG2 cell viability assay in 384 well format
Type: toxicity, cell-based
Parameters: dose 125 nL, time 70.5 hour; cytotoxicity at 70.5 h: concentration not given beside the values
Conditions: HepG2 cells, read-out: Inhibition

SMILES	cytotoxicity at 70.5 h
Cc1nn(C)c(C)c1C1CCCN1CC(=O)N(C)c1nccs1 (stereo unspecified)	-3.66%
CN(CCOc1ccc(C#N)cc1)CC1CCS(=O)(=O)C1 (stereo unspecified)	-9.8%
CC(=O)NCCCNC(=O)N1CCN(c2cc(F)ccc2F)CC1	-6.3%
Cc1cc(C2CCCN(Cc3nnc(Cc4ccccc4)o3)C2)n[nH]1 (stereo unspecified)	-9.79%
C[S+]([O-])CCNC(=O)N1CCN(c2cc(F)ccc2F)CC1 (stereo unspecified)	13%
Cc1cc(COC(=O)[C@@H]2Cc3ccccc3CN2S(C)(=O)=O)no1	1.54%
Cc1ccc(CNc2cc3c(cc2Cl)NC(=O)CO3)cc1C	-5.39%
Cc1ccc(CNCc2nccn2C)c(OC(C)(C)C)c1	-7.39%
Cc1ccc(CNCc2nccn2C)c(OCC2CC2)c1	7.03%
CC1COCCN1C(=O)Cc1cc(Cl)c2c(c1)OCCCO2 (stereo unspecified)	-14.3%
CCSc1cccc(NCc2cccnc2)c1	-16.6%
COc1c(C2CCCN2CC(=O)N(C)Cc2ccco2)c(C)nn1C (stereo unspecified)	-5.02%
COc1ccccc1C(=O)NCCC(=O)Nc1c(C)nn(C)c1C	-12.6%
COCCCNC(=O)NCc1nc(C)c(C)o1	-7.01%
CN(Cc1ccccc1)c1ccc(C(F)(F)F)cn1	-3.92%
CSc1ccccc1NC(=O)CCN1CCC(C(=O)N(C)C)CC1	2.74%
O=C1COc2cc(S(=O)(=O)NCCC3=CCCCC3)c(Br)cc2N1	-8%
CN(Cc1ccc(C(N)=O)cc1)c1ccc(C(F)(F)F)cn1	-2.07%
Cn1cc(C(=O)N2CCCC2c2ccc3c(c2)OCCO3)ccc1=O (stereo unspecified)	-4.05%
CC1CCc2sc(C(=O)Nc3cnn(C)c3)cc2C1 (stereo unspecified)	-2.28%
Cn1ccnc1CCNS(=O)(=O)c1cccc(Br)c1	-2.62%
CC(C)(C(=O)N1CCC(C(N)=O)C1)c1ccccc1F (stereo unspecified)	-2.99%
CN(C)CCN(Cc1ccccc1)C(=O)CN1CCCNC1=O	-0.477%
CCN(CC)C(=O)CNC(=O)c1c[nH]c2ccc(OC)cc12	3.81%

SMILES	cytotoxicity at 70.5 h
Cc1cc(C)n(C2CN(Cc3ccc(C(=O)N4CCCC4)cc3)C2)n1	-1.2%
CNC(=O)c1cccc(NCCOc2ccc(CC#N)cc2)c1C	-1.82%
CC(C)(C(=O)N1CCC(CS(N)(=O)=O)CC1)c1ccccc1F	1.82%
Cn1nc2c(cc1=O)CN(c1nc3ccccc3s1)CC2	4.78%
COc1c(NS(=O)(=O)c2cc(C)ccc2C)c(C)nn1C	-63.5%
O=C(c1cc(-n2cccn2)ccn1)N1CCOc2ncccc21	-1.03%
O=C(c1cc(-n2cccn2)ccn1)N1CCOc2ccncc21	-0.581%
O=C(c1cc(-n2cccn2)ccn1)N1CCOc2ccc(F)cc21	0.748%
Cn1cc(CNC(=O)c2cc3c(s2)CCCCC3)cn1	-3.43%
NC(=O)C1CN(C(=O)C2(c3ccc(F)cc3F)CCCC2)CCO1 (stereo unspecified)	-1.48%
CC(=O)N(C)Cc1ccccc1NCc1c(C)cccc1C	-3.43%
c1ccc2nc(N3CCCC3)c(NCc3nnc4n3CCC4)nc2c1	-9.07%
CNC(=O)c1cccnc1NCCOc1ccc(CC#N)cc1	-0.53%
Cn1cc(CNC2CCc3ncnn3C2)c(-c2cccnc2)n1 (stereo unspecified)	-5.95%
CCc1ccc(CNC2(c3ccc(F)cc3)CCOCC2)o1	-5.73%
CCCc1n[nH]c(C2CN(CC(=O)N(C)Cc3ccco3)CCO2)n1 (stereo unspecified)	-6.63%
CC(C)c1n[nH]c(C2CN(CC(=O)N(C)Cc3ccco3)CCO2)n1 (stereo unspecified)	-3.93%
Cn1cc(CNC2CCc3ncnn3C2)c(-c2ccncc2)n1 (stereo unspecified)	-1.76%
Cc1noc(C)c1CN(C)Cc1csc(-c2ccc(C(C)C)cc2)n1	19.9%
N#Cc1ncn(CCS(=O)(=O)c2ccc(Cl)cc2)n1	2.53%
Cc1cc(NC(=O)NCc2ccc(C)s2)no1	-8.73%
CC(C)Oc1ccc(C(=O)NCc2ccnc(N3CCCC3)c2)cn1	-10.1%
CCn1cnnc1CNC(=O)N(C)Cc1ccc(Cl)cc1Cl	3.74%
O=C(NCCc1cccc(Cl)c1)C1CCOCC1	0.784%

SMILES	cytotoxicity at 70.5 h
COC(=O)N1CCCC(C(=O)Nc2ccccc2CN2CCCC2)C1 (stereo unspecified)	-0.192%
CCN1CCN(C2CCN(C(C(N)=O)c3ccccc3)CC2)C1=O (stereo unspecified)	1.23%
CN(C)C1CCN(C(=O)C2SCCc3ccccc32)CC1 (stereo unspecified)	-6.27%
CS(=O)(=O)CCCNC1CCCN(Cc2noc(C3CC3)n2)C1 (stereo unspecified)	-7.07%
CC(C)NC(=O)CS(=O)(=O)Cc1coc(-c2ccc(F)cc2)n1	-17.8%
CS(=O)(=O)NCCC1CCCCN1C(=O)NCc1ccccn1 (stereo unspecified)	-18.6%
CCN1CCN(C(=O)NCc2ccccc2Cn2cncn2)CC1	19.4%
CS(=O)(=O)CCCNC(=O)C1(c2cccc(Cl)c2)CC1	-12.8%
CC(=O)N1CCN(C(=O)CN(C)c2ccc(Cl)cn2)CC1	-10.3%
Cc1ncc(CN2CCC(c3nc4cc(Cl)ccc4o3)CC2)s1	22.3%
CN1CCCN(C(=O)NCc2ccccc2Cn2cncn2)CC1	-2.94%
CC(=O)N1CCN(C(=O)NCc2ccccc2Cn2cncn2)CC1	-14.9%
COc1cc(C(=O)NS(=O)(=O)c2cncc(Br)c2)ccc1C	-19%
CC(C)C(=O)N1CCCC1C(=O)Nc1cc(C(F)(F)F)ccc1F (stereo unspecified)	-17.3%
CCS(=O)(=O)CCNC(=O)C1(c2cccc(Cl)c2)CC1	15.5%
COC(=O)[C@H](C)NC(=O)COc1nn(C)c2nc(C)cc(C)c12	-16.3%
Cc1cc(C)c2c(OCC(=O)N(C)CC(=O)NC(C)C)nn(C)c2n1	-19.9%
Cc1cc(NC(=O)CN2CCc3c(nc(C(C)C)n3C)C2)n(C)n1	-16.7%
Cc1nnc(NC(=O)CN2CCc3c(nc(C(C)C)n3C)C2)s1	-8.19%
CN(CC(=O)N1CCN(CC(C)(C)O)CC1)c1ccc(Cl)cn1	-17.3%
CCC(C)(CC)NC(=O)COc1nn(C)c2nc(C)cc(C)c12	14.2%
Cc1n[nH]c(C)c1NC(=O)CN1CCc2c(nc(C(C)C)n2C)C1	-16.4%
COCCOCC(C)NC(=O)COc1nn(C)c2nc(C)cc(C)c12 (stereo unspecified)	-11%
CC(C)C(=O)N1CCCC1C(=O)Nc1ccc(F)c(F)c1 (stereo unspecified)	-14.3%

SMILES	cytotoxicity at 70.5 h
COc1ccc(C(=O)NS(=O)(=O)c2cncc(Br)c2)cc1	-16.9%
CNC(=O)Cc1coc(-c2ccc(F)cc2)n1	-16.9%
COc1cc(C(=O)NS(=O)(=O)c2cncc(Br)c2)cc(OC)c1C	-8.02%
Cc1ccc(F)c(S(=O)(=O)Nc2cn(C)cc(Br)c2=O)c1	-1.44%
Cn1cc(Br)c(=O)c(NS(=O)(=O)c2ccc3c(c2)CCC3)c1	2.07%
CN(CCc1cccs1)C(=O)Nc1cnn(CC2CCCO2)c1 (stereo unspecified)	-16%
CCN(CC)C(=O)CNC(=O)N1CCC(c2ccc(OC)cc2)C1 (stereo unspecified)	12.9%
C1CCC(NC2CCCN(Cc3noc(C4CC4)n3)C2)C1 (stereo unspecified)	-15.1%
COc1cccc(C2(CNC(C)c3nnc(C)o3)CCCC2)c1 (stereo unspecified)	-13.9%
O=C(c1ccn(-c2cccc(F)c2)n1)N1CCN(CCO)CC1	-5.78%
CCc1noc(CNc2c(F)cccc2-n2cccn2)n1	-8.2%
CC(C)CNC(=O)Nc1cccc(CN2CCOC2=O)c1	-6.71%
Cc1cccc(NC(=O)C2CCCN2C(=O)c2ccco2)c1C (stereo unspecified)	11.4%
O=C1CN(Cc2nnc(-c3ccc(Cl)cc3)o2)CCN1	-9.87%
CC(Cn1cccn1)NC(=O)Nc1ccc(N2CCCCC2)nc1 (stereo unspecified)	-7.26%
Cc1ccc(NC(=O)NC(C)Cn2cccn2)cc1 (stereo unspecified)	-11.9%
CC(NC(=O)N(C)Cc1ccc2c(c1)OCCO2)c1nncn1C (stereo unspecified)	-0.921%
Cc1cc(NC(=O)NCCc2ccccc2)n(C)n1	-7.09%
CC(C)(O)CN1CCN(C(=O)c2ccn(-c3cccc(F)c3)n2)CC1	-4.39%
CCC(O)CN1CCN(C(=O)c2ccn(-c3cccc(F)c3)n2)CC1 (stereo unspecified)	-5.3%
COC(=O)c1ccc(NC(=O)[C@@H]2CCCN2C(=O)c2ccco2)s1	-7.02%
Cc1cc(NC(=O)CN2CCc3nn(C)c(=O)cc3C2)no1	-9.67%
CSC(C)(C)CNC(=O)Nc1cccc(-c2nccn2C)c1	-3.46%
O=C(CSc1ccc2c(c1)OCCO2)NS(=O)(=O)c1ccccc1Cl	-4.64%

SMILES	cytotoxicity at 70.5 h
O=C(CSc1ccc2c(c1)OCCO2)NS(=O)(=O)c1ccccc1Br	-6.54%
COc1ccc(-c2nc(CN3CCCS3(=O)=O)co2)cc1	14.5%
CN1CCN(c2nc(-c3cnn(C)c3)cs2)CC1	-6.42%
CC(C)(C)c1nnc(CNc2c(F)cccc2-n2cccn2)o1	-8.76%
O=S1(=O)CCCN1Cc1coc(-c2ccc(C(F)(F)F)cc2)n1	11%
CCC(CC)C(O)CNC(=O)Nc1cccc(-c2nccn2C)c1 (stereo unspecified)	-3.63%
CC(=O)NCCc1ccc(S(=O)(=O)N(C)C(C)CC(C)C)s1 (stereo unspecified)	-7.26%
OCCN1CCN(Cc2cc3c(cc2Br)OCCO3)CC1	20.1%
CCc1n[nH]c(C2CN(C(=O)Cc3ccc(C)nc3)CCO2)n1 (stereo unspecified)	9.01%
CC(C#N)CSc1ccccc1NCC(=O)NC(C1CC1)C1CC1 (stereo unspecified)	8.68%
CCNc1nnc(SCC(=O)N2CCN(Cc3ccc(Cl)s3)CC2)s1	-0.322%
Cn1cnc(S(=O)(=O)N2CCOCC2)c1Cl	-3.62%
CN1CCN(S(=O)(=O)c2ncn(C)c2Cl)CC1	-5.44%
CC(C)N1CCN(S(=O)(=O)c2ncn(C)c2Cl)CC1	-4.74%
O=C1NCCCCC1Sc1nnc(N2CCCC2)n1C1CC1 (stereo unspecified)	6.7%
CC1CCN(CCNC(=O)C2CCN(C(=O)C(C)(C)C)CC2)CC1	-3.74%
CC(=O)N1CCC(C(=O)NCCN2CCCC(C)C2)CC1 (stereo unspecified)	-7.29%
COc1ccc(NC(C)C(=O)N2CCCC2)cn1 (stereo unspecified)	-1.03%
NC(=O)COc1ccc(CNC(=O)CN2CCc3ccccc32)cc1	0.272%
CC(=O)NCCNC(=O)Nc1cccc(Cl)c1SC(F)F	-0.195%
